# Where two headings read alike, the source gives them in different places.
# Target: HCV NS5b RNA dependent RNA polymerase (Hepatitis C virus genotype 1a, UniProt P27958)
# Test: HCV NS5b RNA dependent RNA polymerase inhibition (scintillation proximity assay)
# Type: biochemical
# Description: Compounds of the present invention are evaluated for inhibition of HCV NS5b RNA dependent RNA polymerase activity in assays comprised of a suitable buffer (e.g. 20 mM Tris-HCl pH 7.6), primed or unprimed RNA templates, GTP, ATP, CTP, and UTP, MnCl2 or MgCl2, and reducing agent such as 10 mM dithiothreitol or 2-mercaptoethanol. The assay buffer may contain salts such as ammonium acetate, KCl, or NaCl, and nonionic or zwitterionic detergents such as Tween or CHAPS. The incorporation of nucleotides into the complementary RNA strand may be monitored by the incorporation of radiolabeled NTP (e.g. ^3H labeled GTP). Suitable RNA templates for de novo initiation in the presence of 20–50 μM GTP or ATP are the homopolymers poly rC and poly rU, respectively. Heteropolymer RNA templates with 1–3 cytidine (C) bases or 1–3 uridine (U) bases at the 3′ terminus of the template may also be used for de novo initiation. Primed RNA templates such as poly rC primed with oligo rG or oligo dG, and poly rA primed with oligo rU may also be used to detect polymerase activity. The primers may be any length greater than 10 bases. A biotin residue may be added to the 5′ end of the template or the 5′ end of the primer to capture the template and the newly synthesized, complementary strand on avidin coated spheres. One embodiment of this technology consists of a mixture of NS5b polymerase, a poly rC RNA template primed with 5′ biotinylated oligo rG, 20 mM Tris HCl pH 7.6, 100 mM ammonium acetate, 10 mM dithiothreitol, 2 mM CHAPS, 1 mM MgCl2, and 150–200 nM ^3H labeled GTP. Test compounds (inhibitors) may be incorporated in the reaction mixture with up to 10% DMSO. The reaction is run for various times (1–180 minutes) at 22–37° C., and stopped by the addition of 10–140 mM EDTA. Scintillation Proximity Assay avidin-coated beads (Amersham Pharmacia Biotech) are added to capture the ds RNA product; or the reaction mixtures may be transferred to avidin coated Flash Plates (Perkin Elmer Life Sciences). The incorporation of radiolabeled GTP into the complementary strand is measured in 96, 384, or 1536 well plates in scintillation counters such as the Wallac Microbeta and Packard TopCount.
# [1] = concentration for 50% inhibition, class symbols, read-out: NS5B Inhibitory Activity
# Sequence of HCV NS5b RNA dependent RNA polymerase (P27958 2421-3011): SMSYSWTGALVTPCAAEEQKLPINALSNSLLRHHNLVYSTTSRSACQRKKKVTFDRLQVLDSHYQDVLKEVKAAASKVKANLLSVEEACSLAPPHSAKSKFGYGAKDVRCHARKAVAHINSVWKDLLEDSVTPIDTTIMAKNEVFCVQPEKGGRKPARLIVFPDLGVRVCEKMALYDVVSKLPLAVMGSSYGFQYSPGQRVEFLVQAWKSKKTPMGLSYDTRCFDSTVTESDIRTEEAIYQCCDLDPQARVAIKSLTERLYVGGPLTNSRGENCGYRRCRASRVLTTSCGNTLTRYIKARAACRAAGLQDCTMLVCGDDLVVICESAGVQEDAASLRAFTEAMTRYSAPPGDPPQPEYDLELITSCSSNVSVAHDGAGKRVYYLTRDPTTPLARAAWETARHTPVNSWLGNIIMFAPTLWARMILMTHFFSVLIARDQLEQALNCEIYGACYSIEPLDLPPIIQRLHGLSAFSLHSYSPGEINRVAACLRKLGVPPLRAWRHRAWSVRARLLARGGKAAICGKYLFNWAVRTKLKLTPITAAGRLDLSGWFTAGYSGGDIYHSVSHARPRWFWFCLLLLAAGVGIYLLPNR
structure (smiles),measurement,setting,value
O=C(O)/C(=C/c1cccc(Oc2ccccc2Cl)c1)NC(=O)c1ccccc1 [Compound 1],IC50,[1],< 10 µM
Cc1ccccc1-c1ccc(/C=C(\NC(=O)c2ccccc2)C(=O)O)o1 [Compound 2],IC50,,< 10 µM
Cc1ccc(COc2ccc(/C=C(\NC(=O)c3ccccc3)C(=O)O)cc2)cc1 [Compound 3],IC50,[1],11 to 30 µM
O=C(O)/C(=C/c1ccc(-c2ccc3c(c2)OCO3)o1)NC(=O)c1ccccc1 [Compound 4],IC50,[1],< 10 µM
O=C(O)/C(=C/c1ccc(-c2cc3ccccc3s2)o1)NC(=O)c1ccccc1 [Compound 5],IC50,[1],11 to 30 µM
O=C(O)/C(=C/c1ccc(Nc2ccccc2Cl)cc1)NC(=O)c1ccccc1 [Compound 6],IC50,[1],11 to 30 µM
CCS(=O)(=O)c1ccc(-c2ccc(/C=C(\NC(=O)c3ccccc3)C(=O)O)o2)cc1 [Compound 7],IC50,[1],> 30 µM
O=C(O)/C(=C/c1ccc(F)c(-c2ccccc2Cl)c1)NC(=O)c1ccccc1 [Compound 8],IC50,[1],< 10 µM
O=C(O)/C(=C/c1csc(-c2ccccc2Cl)n1)NC(=O)c1ccccc1 [Compound 9],IC50,[1],< 10 µM
O=C(O)/C(=C/c1ncc(-c2ccccc2)o1)NC(=O)c1ccccc1 [Compound 10],IC50,[1],< 10 µM
O=C(O)/C(=C/c1cccc(-c2cccnc2)c1)NC(=O)c1ccccc1 [Compound 11],IC50,[1],> 30 µM
O=C(O)/C(=C/c1cnc(-c2ccccc2Cl)[nH]1)NC(=O)c1ccccc1 [Compound 12],IC50,[1],> 30 µM
O=C(O)/C(=C/c1ccc(Oc2ccccc2Br)cc1)NC(=O)c1ccccc1 [Compound 13],IC50,[1],< 10 µM

# From US7041690B2, “Inhibitors of HCV NS5B polymerase” (Pharmacia & Upjohn Company, LLC, priority 2002, dated 2006)
